62 compounds from patent publication US20250304537A1 (Repare Therapeutics Inc., priority 2022, published 2025) can be followed below.

For orientation: IC50 means the midpoint of a concentration-inhibition curve.

The target of the test is recombinant human Myt1 (full length PKMYT1) (Homo sapiens (Human), UniProt Q99640). Nature of the test: Recombinant human Myt1 kinase assay (ADP-Glo). The settings on record: 10 μM ATP. Format: biochemical. The method, boiled down: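 ADP-Glo luminescence measured ATP hydrolysis by recombinant full-length PKMYT1 (18 nM) after 60 min at 30 °C with 10 μM ATP. Compounds in 0.5% DMSO were added to the enzyme 15 min before ATP, at 22 °C, in HEPES/MgCl2/MnCl2 buffer. IC50 and percent maximal inhibition were derived.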
recombinant human Myt1 (full length PKMYT1), sequence (Q99640 whole entry): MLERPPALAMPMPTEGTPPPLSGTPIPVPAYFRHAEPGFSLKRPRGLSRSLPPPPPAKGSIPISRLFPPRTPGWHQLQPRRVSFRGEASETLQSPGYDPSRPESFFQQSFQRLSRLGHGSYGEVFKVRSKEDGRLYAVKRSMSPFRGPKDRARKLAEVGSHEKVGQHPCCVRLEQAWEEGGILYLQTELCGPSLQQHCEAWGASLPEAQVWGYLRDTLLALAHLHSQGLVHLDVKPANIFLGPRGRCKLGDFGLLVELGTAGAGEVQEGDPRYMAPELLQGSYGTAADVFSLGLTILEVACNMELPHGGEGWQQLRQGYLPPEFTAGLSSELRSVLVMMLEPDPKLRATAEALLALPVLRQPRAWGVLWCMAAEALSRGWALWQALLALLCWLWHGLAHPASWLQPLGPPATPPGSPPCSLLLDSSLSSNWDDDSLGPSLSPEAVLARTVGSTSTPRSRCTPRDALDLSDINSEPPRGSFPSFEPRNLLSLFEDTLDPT
(In general: ADP-Glo turns the ADP formed in a reaction into a luminescent signal.)
Regarding `Cc1ccc2[nH]ncc2c1-c1cc(-c2csc(C3(O)COC3)n2)nc(C(N)=O)c1N` [Compound 223], the IC50 was 61 nM. In the case of `Cc1ccc2[nH]ncc2c1-c1cc(-c2csc(C(C)(C)O)n2)nc(C(N)=O)c1N` [Compound 225] it was 161 nM. In the case of `Cc1ccc2[nH]ncc2c1-c1cc(-c2cc[nH]c(=O)c2)nc(C(N)=O)c1N` [Compound 237] it was 48 nM.

With `Cc1ccc2n[nH]cc2c1-c1cc(-c2cccc(=O)[nH]2)nc(C(N)=O)c1N` [Compound 243], the IC50 worked out at 73 nM. Regarding `Cc1c(-c2ccccn2)nc(C(N)=O)c(N)c1-c1cccc2[nH]ncc12` [Compound 246, 5-amino-4-(1H-indazol-4-yl)-3-methyl-[2,2′-bipyridine]-6-carboxamide], the IC50 amounted to 720 nM. For the compound `Cc1ccc2[nH]ncc2c1-c1cc(-c2cccc(OCc3ccn(C)n3)n2)nc(C(N)=O)c1N` [Compound 248], the IC50 is 71 nM. With `Cc1ccc2[nH]ncc2c1-c1cc(-c2cccc(OC(C)c3ccccn3)n2)nc(C(N)=O)c1N` (centres unmarked) [Compound 252] the figure was 26 nM.

For `Cc1ccc2[nH]ncc2c1-c1cc(-c2cccc(O[C@@H](C)c3ncccn3)n2)nc(C(N)=O)c1N` [Compound 253], the IC50 is 55 nM.

In the case of `COc1cnc(COc2cccc(-c3cc(-c4c(C)ccc5[nH]ncc45)c(N)c(C(N)=O)n3)n2)nc1` [Compound 255], the IC50 turned out to be 72 nM. With `Cc1ccc2[nH]ncc2c1-c1cc(-c2cccc(OCc3c(F)c(F)c(F)c(F)c3F)n2)nc(C(N)=O)c1N` [Compound 258] the figure was greater than 2000 nM.

`Cc1ccc2[nH]ncc2c1-c1cc(-c2cccc(OCc3nccc(N4CCOCC4)n3)n2)nc(C(N)=O)c1N` [Compound 259]: the IC50 was 584 nM. In the case of `Cc1ccc2[nH]ncc2c1-c1cc(-c2ccnc(OCCc3ccncc3)n2)nc(C(N)=O)c1N` [Compound 263], the IC50 amounted to 19 nM. With `Cc1ccc2[nH]ncc2c1-c1cc(-c2ccnc(OCCc3nccn3C)n2)nc(C(N)=O)c1N` [Compound 264] the figure was 9 nM; with `Cc1ccnc(-c2cc(-c3c(C)ccc4[nH]ncc34)c(N)c(C(N)=O)n2)c1` [Compound 269], 18 nM; with `Cc1ccc2[nH]ncc2c1-c1cc(-c2ccnc(OCCc3cccnc3)n2)nc(C(N)=O)c1N` [Compound 272], 12 nM. In the case of `Cc1ccc2[nH]ncc2c1-c1cc(-c2cccc(N[C@@H](CO)c3ccccc3)n2)nc(C(N)=O)c1N` [Compound 275] it was 141 nM; in that of `Cc1ccc2n[nH]cc2c1-c1cc(-c2cccc(OC[C@@H](N)c3ccccc3)n2)nc(C(N)=O)c1N` [Compound 277], 162 nM; in that of `Cc1ccc2[nH]ncc2c1-c1cc(-c2cccc(OCc3cncs3)n2)nc(C(N)=O)c1N` [Compound 279], 8 nM. In the case of `Cc1ccc2[nH]ncc2c1-c1nc(-c2cccc(CC#N)c2)nc(C(N)=O)c1N` [Compound 281] it was 8 nM; in that of `Cc1ccc2[nH]ncc2c1-c1nc(-c2cccc(-n3cccn3)c2)nc(C(N)=O)c1N` [Compound 282], 13 nM.

For the compound `Cc1ccc2[nH]ncc2c1-c1nc(-c2cccc(CN3CCOCC3)c2)nc(C(N)=O)c1N` [Compound 283], the 50% inhibitory concentration (IC50) was 30 nM. Turning to `Cc1ccc2[nH]ncc2c1-c1nc(-c2cccc(C(=O)N(C)C)c2)nc(C(N)=O)c1N` [Compound 284], the IC50 came out at 38 nM.

On to `CNC(=O)c1cccc(-c2nc(C(N)=O)c(N)c(-c3c(C)ccc4[nH]ncc34)n2)c1` [Compound 285], for which the half-inhibitory concentration (IC50) stood at 20 nM. In the case of `COCCOc1cccc(-c2nc(C(N)=O)c(N)c(-c3c(C)ccc4[nH]ncc34)n2)c1` [Compound 286] it was 41 nM; in that of `Cc1ccc2[nH]ncc2c1-c1nc(-c2cccc(Oc3ccc(F)cc3)c2)nc(C(N)=O)c1N` [Compound 287], 62 nM. In the case of `Cc1ccc2[nH]ncc2c1-c1nc(-c2cccc(C(=O)N3CCOCC3)c2)nc(C(N)=O)c1N` [Compound 289], the IC50 came to 18 nM.

For the compound `Cc1ccc2[nH]ncc2c1-c1nc(-c2cccc(CN(C)C)c2)nc(C(N)=O)c1N` [Compound 291], the IC50 was 25 nM. Regarding `COCc1cccc(-c2nc(C(N)=O)c(N)c(-c3c(C)ccc4[nH]ncc34)n2)c1` [Compound 292], the IC50 was 18 nM. In the case of `CCOC(=O)COc1cccc(-c2nc(C(N)=O)c(N)c(-c3c(C)ccc4[nH]ncc34)n2)c1` [Compound 293] it was 16 nM; in that of `Cc1ccc2[nH]ncc2c1-c1nc(-c2cccc(OCC(=O)O)c2)nc(C(N)=O)c1N` [Compound 294], 17 nM; in that of `Cc1ccc2[nH]ncc2c1-c1nc(-c2cccc(CNc3ncccn3)c2)nc(C(N)=O)c1N` [Compound 295], 27 nM.

Consider `Cc1ccc2[nH]ncc2c1-c1nc(-c2cccc(CNc3ncc(C(F)(F)F)cn3)c2)nc(C(N)=O)c1N` [Compound 296], for which the half-inhibitory concentration (IC50) was 213 nM.

As to `CC(=O)Nc1cccc(-c2nc(C(N)=O)c(N)c(-c3c(C)ccc4[nH]ncc34)n2)c1` [Compound 298], the IC50 was found to be 15 nM. As for `Cc1ccc2[nH]ncc2c1-c1cc(-c2ccnc(OCc3noc(C4CCCC4)n3)n2)nc(C(N)=O)c1N` [Compound 300], the IC50 was found to be 100 nM. With `Cc1ccc2[nH]ncc2c1-c1nc(-c2cccc(C=O)c2)nc(C(N)=O)c1N` [Compound 304] the figure was 27 nM. With `Cc1ccc2[nH]ncc2c1-c1nc(-c2cccc(CO)c2)nc(C(N)=O)c1N` [Compound 305] the figure was 81 nM; with `Cc1ccc2[nH]ncc2c1-c1cc(-c2cccc(OCCN3CCN(C)CC3)n2)nc(C(N)=O)c1N` [Compound 307], 25 nM; with `Cc1ccc2[nH]ncc2c1-c1cc(-c2ccnc(OCCc3cnccn3)n2)nc(C(N)=O)c1N` [Compound 310], 14 nM. In the case of `Cc1ccc2[nH]ncc2c1-c1cc(-c2ccnc(OCCc3ccncn3)n2)nc(C(N)=O)c1N` [Compound 311] it was greater than 2000 nM. As for `Cc1nc(COc2nccc(-c3cc(-c4c(C)ccc5[nH]ncc45)c(N)c(C(N)=O)n3)n2)co1` [Compound 316], the IC50 worked out at 20 nM.

Regarding `Cc1ccc2[nH]ncc2c1-c1cc(-c2ccnc(OCC3CCC(=O)N3)n2)nc(C(N)=O)c1N` (centres unmarked) [Compound 317], the IC50 was found to be 13 nM. For `Cc1nnc(COc2cccc(-c3cc(-c4c(C)ccc5[nH]ncc45)c(N)c(C(N)=O)n3)n2)o1` [Compound 318], the IC50 was found to be 21 nM. Take `Cc1ccc2[nH]ncc2c1-c1nc(-c2ccccc2N)nc(C(N)=O)c1N` [Compound 319]: the IC50 came out at 48 nM. With `NC(=O)c1nc(-c2cccnc2)cc(-c2c(C(F)F)ccc3[nH]ncc23)c1N` [Compound 321, 5-amino-4-(5-(difluoromethyl)-1H-indazol-4-yl)-[2,3′-bipyridine]-6-carboxamide] the figure was greater than 2000 nM. With `NC(=O)c1nc(-c2cccnc2)cc(-c2c(C(F)(F)F)ccc3[nH]ncc23)c1N` [Compound 325] the figure was greater than 2000 nM. In the case of `Cc1ccc2[nH]ncc2c1-c1cc(-c2ccnc(OCc3cncn3C3CCCCC3)n2)nc(C(N)=O)c1N` [Compound 328] it was 18 nM; in that of `Cc1ccc2[nH]ncc2c1-c1cc(-c2ccnc(OCCn3cccn3)n2)nc(C(N)=O)c1N` [Compound 329], 14 nM. Turning to `CCC(Nc1cccc(-c2cc(-c3c(C)ccc4[nH]ncc34)c(N)c(C(N)=O)n2)n1)c1ccccc1` (centres unmarked) [Compound 331, 5-amino-4-(5-methyl-1H-indazol-4-yl)-6′-((1-phenylpropyl)amino)-[2,2′-bipyridine]-6-carboxamide], the IC50 was 54 nM. Regarding `Cc1ccc2[nH]ncc2c1-c1cc(Nc2ccccc2)nc(C(N)=O)c1N` [Compound 335, 3-amino-4-(5-methyl-1H-indazol-4-yl)-6-(phenylamino)picolinamide], the IC50 was 195 nM. With `Cc1ccc2[nH]ncc2c1-c1cc(-c2ccnc(OCc3nc4ccccc4n3C)n2)nc(C(N)=O)c1N` [Compound 336] the figure was 65 nM; with `Cc1ccc2[nH]ncc2c1-c1cc(-c2ccnc(OC[C@H]3CCC(=O)N3)n2)nc(C(N)=O)c1N` [Compound 337], 19 nM; with `COc1ccc(COc2cccc(-c3cc(-c4c(C)ccc5[nH]ncc45)c(N)c(C(N)=O)n3)n2)cc1` [Compound 339], 1160 nM.

Regarding `COc1cccc(-c2cccc(-c3cc(-c4c(C)ccc5[nH]ncc45)c(N)c(C(N)=O)n3)n2)c1` [Compound 340, 5-amino-6′-(3-methoxyphenyl)-4-(5-methyl-1H-indazol-4-yl)-[2,2′-bipyridine]-6-carboxamide], the IC50 is greater than 2000 nM.

As to `Cc1ccc2[nH]ncc2c1-c1cc(-c2ccnc(NCC3(O)CC3)n2)nc(C(N)=O)c1N` [Compound 341], the half-maximal inhibitory concentration (IC50) was determined as 16 nM. In the case of `Cc1ccc2[nH]ncc2c1-c1cc(-c2ccnc(NCCCO)n2)nc(C(N)=O)c1N` [Compound 343] it was 20 nM. As to `Cc1ccc2[nH]ncc2c1-c1cc(-c2ccnc(N3CCCC(CO)C3)n2)nc(C(N)=O)c1N` (centres unmarked) [Compound 346], the 50% inhibitory concentration (IC50) was 13 nM. With `Cc1ccc2[nH]ncc2c1-c1cc(-c2ccnc(N3CC[C@@H](O)C3)n2)nc(C(N)=O)c1N` [Compound 347], the IC50 came out at 18 nM. In the case of `Cc1ccc2[nH]ncc2c1-c1cc(-c2ccnc(N3CC[C@H](O)C3)n2)nc(C(N)=O)c1N` [Compound 348] it was 15 nM. With `Cc1ccc2[nH]ncc2c1-c1cc(-c2ccnc(N3CCC(O)(c4ccccc4)CC3)n2)nc(C(N)=O)c1N` [Compound 349] the figure was 138 nM. In the case of `CCC(CC)COc1cccc(-c2cc(-c3c(C)ccc4[nH]ncc34)c(N)c(C(N)=O)n2)n1` [Compound 350] it was 35 nM; in that of `CO[C@@H](COc1cccc(-c2cc(-c3c(C)ccc4[nH]ncc34)c(N)c(C(N)=O)n2)c1)c1ccccc1` [Compound 351], 149 nM; in that of `CO[C@@H](COc1cccc(-c2nc(C(N)=O)c(N)c(-c3c(C)ccc4[nH]ncc34)n2)c1)c1ccccc1` [Compound 354], 293 nM.
